Target: PI-3 kinase γ (Homo sapiens, UniProt P48736)
Assay: PI3Kγ inhibitory activity, PI3-kinase HTRF assay (inhibition ratio)
Assay type: biochemical
Details: 0.5 h, compound at 50 μmol/L
Procedure: For each compound synthesized in the above Examples, PI3Kγ inhibitory activity was measured.
The PI3Kγ inhibitory activity of a compound was evaluated using PI3-kinase HTRF™ assay (Millipore) according to the following procedure:
To each well of a testing plate, 5 μL of a compound solution containing 10% DMSO (200 μmol/L or 40 μmol/L as the concentration of the compound), 5 μL of a substrate solution (40 μmol/L phosphatidylinositol (4,5)-bisphosphate, 20 mmol/L MgCl2, 10 mmol/L DTT), and 5 μL of a enzyme solution (80 μg/mL PI-3 kinase γ, 10 mmol/L MgCl2, 5 mmol/L DTT) were added, and then allowed to stand for 10 minutes.
Then, 5 μL of a reaction solution (40 μmol/L ATP, 10 mmol/L MgCl2, 5 mmol/L DTT) was added thereto. After reacting for 30 minutes at room temperature, 5 μL of a solution containing EDTA and biotinylated phosphatidylinositol (3,4,5)-triphosphate were added to quench the reaction.
5 μL of a detection reagent containing a europium-labeled anti-GST antibody, the GST-tagged PH domain, and allophycocyanin-labeled streptavidin was added thereto. After 18 hours, HTRF (excitation wavelength: 330 nm, measured wavelengths: 620 nm and 665 nm) was measured.
HTRF ratio was defined as the value obtained by dividing the amount of fluorescence obtained at the measured wavelength 665 nm by the amount of fluorescence obtained at 620 nm. The HTRF ratio in the absence of a compound was defined as 100% activity and the HTRF ratio in the absence of PI-3 kinase γ was defined as 0% activity to calculate an inhibition ratio which was defined as the PI3Kγ inhibitory activity of a compound at 50 μmol/L or 10 μmol/L.

Chain of PI-3 kinase γ (P48736 whole entry): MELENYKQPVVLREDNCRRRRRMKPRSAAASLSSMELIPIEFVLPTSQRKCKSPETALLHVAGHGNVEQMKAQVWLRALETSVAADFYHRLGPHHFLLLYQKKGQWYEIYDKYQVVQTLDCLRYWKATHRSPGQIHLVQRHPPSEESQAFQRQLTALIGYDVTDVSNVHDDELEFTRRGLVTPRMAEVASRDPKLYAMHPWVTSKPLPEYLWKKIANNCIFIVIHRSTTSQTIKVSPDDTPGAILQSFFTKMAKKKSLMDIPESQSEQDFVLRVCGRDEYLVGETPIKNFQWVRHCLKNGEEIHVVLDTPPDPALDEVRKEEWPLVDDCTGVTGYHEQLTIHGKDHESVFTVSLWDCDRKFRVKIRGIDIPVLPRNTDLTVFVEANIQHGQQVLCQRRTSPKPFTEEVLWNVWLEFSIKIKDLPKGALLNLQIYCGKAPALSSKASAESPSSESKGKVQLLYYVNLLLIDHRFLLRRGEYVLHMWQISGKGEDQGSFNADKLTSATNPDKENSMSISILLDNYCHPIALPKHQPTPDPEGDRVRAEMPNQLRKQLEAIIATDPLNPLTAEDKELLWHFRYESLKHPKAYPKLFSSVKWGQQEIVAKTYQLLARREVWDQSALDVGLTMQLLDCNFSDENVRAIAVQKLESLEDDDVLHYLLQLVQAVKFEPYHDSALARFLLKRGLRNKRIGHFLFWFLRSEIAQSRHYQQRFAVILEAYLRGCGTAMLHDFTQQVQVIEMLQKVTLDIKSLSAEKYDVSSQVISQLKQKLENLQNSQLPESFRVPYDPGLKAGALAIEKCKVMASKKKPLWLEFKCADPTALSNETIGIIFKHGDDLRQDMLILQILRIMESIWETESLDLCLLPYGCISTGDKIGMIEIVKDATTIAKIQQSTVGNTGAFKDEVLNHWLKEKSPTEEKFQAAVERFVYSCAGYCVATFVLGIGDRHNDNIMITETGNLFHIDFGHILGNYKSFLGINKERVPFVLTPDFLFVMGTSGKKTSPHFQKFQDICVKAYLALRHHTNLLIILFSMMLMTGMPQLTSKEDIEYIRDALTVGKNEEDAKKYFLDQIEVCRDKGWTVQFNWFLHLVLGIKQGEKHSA

Row | Compound | inhibition at 50 µM [%]
1 | O=C(Nc1ccccc1)N1CCOc2cccnc21 [Compound I-2] | 89
2 | C=CCC1(C)SC(N2CCOc3cccnc32)=NC1=O (centres unmarked) [Compound I-3] | 80
3 | CC1(Cc2ccccc2)SC(N2CCOc3cccnc32)=NC1=O (centres unmarked) [Compound I-4] | 84
4 | S=C(Nc1cccnc1)N1CCOc2cccnc21 [Compound I-5] | 90
5 | CC1(C/C=C/c2ccccc2)SC(N2CCOc3cccnc32)=NC1=O (centres unmarked) [Compound I-6] | 81
6 | C#CCC1(C)SC(N2CCOc3cccnc32)=NC1=O (centres unmarked) [Compound I-7] | 75
7 | O=C(NC1CCCCC1)N1CCOc2cccnc21 [Compound I-17] | 88
8 | O=C(Nc1ccccc1)N1CCOc2ccc(/C=C/c3ccccc3)nc21 [Compound I-60] | 74
9 | O=C(Nc1ccccc1)N1CCOc2ccc(-c3nccs3)nc21 [Compound I-83] | 92
10 | O=C(Nc1ccccc1)N1CCOc2ccc(-c3ncco3)nc21 [Compound I-84] | 72
11 | O=C(Nc1ccccc1)N1CCOc2ccc(Cc3ccccc3)nc21 [Compound I-87] | 75
12 | CC(C)CCc1ccc2c(n1)N(C(=O)Nc1ccccc1)CCO2 [Compound I-88] | 91
13 | CCCc1ccc2c(n1)N(C(=O)Nc1ccccc1)CCO2 [Compound I-90] | 72
14 | O=C(O)CCCc1ccc2c(n1)N(C(=O)Nc1ccccc1)CCO2 [Compound I-95] | ≥ 95
15 | O=C(Nc1ccccc1)N1CCOc2ccc(-c3cncnc3)nc21 [Compound I-106] | ≥ 95
16 | Nc1ccc2c(n1)N(C(=O)Nc1ccccc1)CCO2 [Compound I-108] | 88
17 | NCCOc1ccccc1NC(=O)c1ccc2c(n1)N(C(=O)Nc1ccccc1)CCO2 [Compound I-130] | ≥ 95

Row | Compound | inhibition at 50 µM [%]
18 | O=C(Nc1ccccc1)N1CCOc2cc(NCc3ccccc3)cnc21 [Compound I-131] | ≥ 95
19 | O=C(Nc1ccccc1)N1CCOc2cc(Nc3ccccc3)cnc21 [Compound I-132] | 83
20 | O=C(O)c1ccccc1Nc1cnc2c(c1)OCCN2C(=O)Nc1ccccc1 [Compound I-137] | ≥ 95
21 | COC(=O)c1ccccc1Nc1ccc2c(n1)N(C(=O)Nc1ccccc1)CCO2 [Compound I-141] | 82
22 | CC(C)(C)OC(=O)c1cccc(Nc2ccc3c(n2)N(C(=O)Nc2ccccc2)CCO3)c1 [Compound I-142] | 78
23 | O=C(Nc1ccccc1)N1CCOc2ccc(Nc3ccccc3)nc21 [Compound I-144] | 81
24 | Nc1cnc2c(c1)OCCN2C(=O)Nc1ccccc1 [Compound I-148] | 94
25 | CC(C)(C)OC(=O)CC(=O)Nc1cnc2c(c1)OCCN2C(=O)Nc1ccccc1 [Compound I-160] | 75
26 | O=C(O)CC(=O)Nc1cnc2c(c1)OCCN2C(=O)Nc1ccccc1 [Compound I-161] | 88
27 | CC(=O)Nc1cnc2c(c1)OCCN2C(=O)Nc1ccccc1 [Compound I-173] | ≥ 95
28 | CC(=O)Nc1ccc2c(n1)N(C(=O)Nc1ccccc1)CCO2 [Compound I-174] | 79
29 | COCOc1ccc(C(=O)OC)cc1Nc1ccc2c(n1)N(C(=O)Nc1ccccc1)CCO2 [Compound I-179] | 79
30 | O=C(Nc1ccccc1)N1CCOc2ccc(Nc3ccccn3)nc21 [Compound I-180] | ≥ 95
31 | O=C(Nc1ccccc1)N1CCOc2ccc(Nc3cccnc3)nc21 [Compound I-181] | ≥ 95
32 | O=C(Nc1ccccc1)N1CCOc2ccc(Nc3ccncc3)nc21 [Compound I-182] | ≥ 95
33 | O=C(Nc1ccccc1)N1CCOc2ccc(-c3ccn[nH]3)nc21 [Compound I-187] | ≥ 95
34 | Cc1n[nH]c(C)c1-c1ccc2c(n1)N(C(=O)Nc1ccccc1)CCO2 [Compound I-189] | 83

Continued, values first:

Row | inhibition at 50 µM [%] | Compound
35 | 76 | CC(NC(=O)c1ccc2c(n1)N(C(=O)Nc1ccccc1)CCO2)C(=O)O (centres unmarked) [Compound I-38]
36 | 80 | O=C(O)c1ccc(NC(=O)c2ccc3c(n2)N(C(=O)Nc2ccccc2)CCO3)cc1 [Compound I-40]
37 | 93 | O=C(O)c1ccc(-c2ccc3c(n2)N(C(=O)Nc2ccccc2)CCO3)cc1 [Compound I-51]
38 | 73 | NC(=O)c1ccc(-c2ccc3c(n2)N(C(=O)Nc2ccccc2)CCO3)cc1 [Compound I-69]
39 | 71 | CNC(=O)c1ccc(-c2ccc3c(n2)N(C(=O)Nc2ccccc2)CCO3)cc1 [Compound I-70]
40 | 82 | CN1CCOc2cc(-c3ccc4c(n3)N(C(=O)Nc3ccccc3)CCO4)ccc21 [Compound I-77]
41 | 82 | O=C(Nc1ccccc1)N1CCOc2ccc(C3CCCCC3)nc21 [Compound I-86]
42 | ≥ 95 | CCOC(=O)CCCc1ccc2c(n1)N(C(=O)Nc1ccccc1)CCO2 [Compound I-89]
43 | ≥ 95 | CCOC(=O)CCc1ccc2c(n1)N(C(=O)Nc1ccccc1)CCO2 [Compound I-92]
44 | ≥ 95 | O=C(O)CCc1ccc2c(n1)N(C(=O)Nc1ccccc1)CCO2 [Compound I-94]
45 | 89 | O=C(Nc1ccccc1)N1CCOc2ccc(-c3ccc(CO)cc3)nc21 [Compound I-97]
46 | 73 | COc1ccc(-c2ccc3c(n2)N(C(=O)Nc2ccccc2)CCO3)cc1 [Compound I-98]
47 | ≥ 95 | COc1ccc(-c2ccc3c(n2)N(C(=O)Nc2ccccc2)CCO3)cc1OC [Compound I-99]
48 | ≥ 95 | Cc1noc(C)c1-c1ccc2c(n1)N(C(=O)Nc1ccccc1)CCO2 [Compound I-100]
49 | ≥ 95 | O=C(Nc1ccccc1)N1CCOc2ccc(-c3ccoc3)nc21 [Compound I-101]
50 | 94 | O=C(Nc1ccccc1)N1CCOc2ccc(-c3cccnc3)nc21 [Compound I-102]
51 | 94 | COC(=O)c1cccc(-c2ccc3c(n2)N(C(=O)Nc2ccccc2)CCO3)c1 [Compound I-103]
52 | ≥ 95 | O=C(O)c1cccc(-c2ccc3c(n2)N(C(=O)Nc2ccccc2)CCO3)c1 [Compound I-104]
53 | ≥ 95 | O=C(Nc1ccccc1)N1CCOc2ccc(-c3ccncc3)nc21 [Compound I-107]
54 | 87 | O=C(O)c1ccc(-c2cnc3c(c2)OCCN3C(=O)Nc2ccccc2)cc1 [Compound I-111]

Row | inhibition at 50 µM [%] | Compound
55 | ≥ 95 | NCCOc1ccc(C(=O)O)cc1NC(=O)c1ccc2c(n1)N(C(=O)Nc1ccccc1)CCO2 [Compound I-118]
56 | 87 | CCOC(=O)CC(=O)Nc1ccc2c(n1)N(C(=O)Nc1ccccc1)CCO2 [Compound I-122]
57 | ≥ 95 | O=C(O)CC(=O)Nc1ccc2c(n1)N(C(=O)Nc1ccccc1)CCO2 [Compound I-123]
58 | 76 | O=C(O)c1cccc(C(=O)Nc2ccc3c(n2)N(C(=O)Nc2ccccc2)CCO3)c1 [Compound I-124]
59 | ≥ 95 | O=C(O)c1ccc(C(=O)Nc2ccc3c(n2)N(C(=O)Nc2ccccc2)CCO3)cc1 [Compound I-125]
60 | ≥ 95 | O=C(O)c1cccc(NC(=O)c2ccc3c(n2)N(C(=O)Nc2ccccc2)CCO3)c1 [Compound I-126]
61 | ≥ 95 | CC(C)(C)OC(=O)c1ccc(Nc2ccc3c(n2)N(C(=O)Nc2ccccc2)CCO3)cc1 [Compound I-143]
62 | ≥ 95 | O=C(O)c1cccc(Nc2ccc3c(n2)N(C(=O)Nc2ccccc2)CCO3)c1 [Compound I-147]
63 | ≥ 95 | O=C(O)Cc1cccc(-c2ccc3c(n2)N(C(=O)Nc2ccccc2)CCO3)c1 [Compound I-152]
64 | 86 | O=C(O)c1ccc(Nc2ccc3c(n2)N(C(=O)Nc2ccccc2)CCO3)nc1 [Compound I-183]
65 | ≥ 95 | O=C(O)c1cncc(-c2ccc3c(n2)N(C(=O)Nc2ccccc2)CCO3)c1 [Compound I-184]
66 | 76 | Nc1ccc(-c2ccc3c(n2)N(C(=O)Nc2ccccc2)CCO3)cn1 [Compound I-185]
67 | ≥ 95 | Cc1n[nH]cc1-c1ccc2c(n1)N(C(=O)Nc1ccccc1)CCO2 [Compound I-188]
68 | ≥ 95 | Cn1cc(-c2ccc3c(n2)N(C(=O)Nc2ccccc2)CCO3)cn1 [Compound I-190]
69 | ≥ 95 | CCOC(=O)N1CCC(NC(=O)N2CCOc3ccc(-c4ccc(C(=O)O)cc4)nc32)CC1 [Compound I-203]
70 | ≥ 95 | O=C(O)c1ccc(-c2ccc3c(n2)N(C(=O)NCCO)CCO3)cc1 [Compound I-205]
71 | 81 | O=C(Nc1ccccc1)N1CCOc2ccc(N3CCOCC3)nc21 [Compound I-207]
72 | 90 | O=C(O)c1ccc(-c2ccc3c(n2)N(C(=O)Nc2ccncc2)CCO3)cc1 [Compound I-209]
73 | ≥ 95 | COc1ccc(NC(=O)N2CCOc3ccc(Nc4ccc(C(=O)O)cc4)nc32)cc1OC [Compound I-210]
74 | ≥ 95 | COc1cccc(NC(=O)N2CCOc3ccc(Nc4ccc(C(=O)O)cc4)nc32)c1 [Compound I-211]
